The record followed here is US6046217A, “2,3,5-trisubstituted pyridines as inhibitors of cyclooxygenase-2” (Merck Frosst Canada & Co., priority 1998, dated 2000).

Where two headings read alike, the source gives them in different places. Where only a bound is given, the exact number is not on record here.

The target in test [1] is T1, COX-1 (Homo sapiens, UniProt P23219). The experiment in a line: Human whole blood assay, COX-1 (clotting-induced TxB2 production). In kind it is cell-based. On the set-up: platelets in whole blood contain a large amount of the COX-1 enzyme; endogenous in cells; host or cells: platelets in fresh human whole blood, clotting. The source says:
(§1) As well, platelets in whole blood contain a large amount of the COX-1 enzyme. Immediately following blood clotting, platelets are activated through a thrombin-mediated mechanism. This reaction results in the production of thromboxane B2 (TxB2) via activation of COX-1. Thus, the effect of test compounds on TxB2 levels following blood clotting can be examined and used as an index for COX-1 activity. Therefore, the degree of selectivity by the test compound can be determined by measuring the levels of PGE2 after LPS induction (COX-2) and TxB2 following blood clotting (COX-1) in the same assay.
Fresh blood is collected into vacutainers containing no anticoagulants. […] The tubes are vortexed and incubated at 37° C. for 1 hour to allow blood to clot. At the end of incubation, serum is obtained by centrifugation (12,000×g for 5 min.). A 100 μL aliquot of serum is mixed with 400 μL of methanol for protein precipitation.

Test [2] has as its target T1, COX-1. The experiment in a line: Assay of COX-1 activity from U937 cell microsomes (PGE2). On the set-up: Assay of COX-1 Activity from U937 Cell Microsomes; endogenous in cells; host or cells: U937 cells, 100,000 x g microsomal pellet. The test is classed as biochemical. The settings on record: 15 min preincubation. As for the experimental part: U 937 cells are pelleted by centrifugation at 500×g for 5 min and washed once with phosphate-buffered saline and repelleted. Cells are resuspended in homogenization buffer consisting of 0.1 M Tris-HCl, pH 7.4, 10 mM EDTA, […] leupeptin, 2 μg/ml soybean trypsin inhibitor, 2 μg/ml aprotinin and 1 mM phenyl methyl sulfonyl fluoride. The cell suspension is sonicated 4 times for 10 sec and is centrifuged at 10,000×g for 10 min at 4° C. The supernatant is centrifuged at 100,000×g for 1 hr at 4° C. The 100,000×g microsomal pellet is resuspended in 0.1 M Tris-HCl, pH 7.4, 10 mM EDTA to approximately 7 mg protein/ml and stored at -80° C.
Microsomal preparations are thawed immediately prior to use, subjected to a brief sonication, and then diluted to a protein concentration of 125 μg/ml in 0.1 M Tris-HCl buffer, pH 7.4 containing 10 mM EDTA, 0.5 mM phenol, 1 mM reduced glutathione and 1 μM hematin. Assays are performed in duplicate in a final volume of 250 μl. Initially, 5 μl of DMSO vehicle or drug in DMSO are added to 20 μl of 0.1 M Tris-HCl buffer, pH 7.4 containing 10 mM EDTA in wells of a 96-deepwell polypropylene titre plate. 200 μl of the microsomal preparation are then added and pre-incubated for 15 min at room temperature before addition of 25 μl of […] arachidonic acid in […] Tris-HCl and 10 mM EDTA, pH 7.4. Samples are incubated for 40 min at room temperature and the reaction is stopped by the addition of 25 μl of 1 N HCl. Samples are neutralized with 25 μl of 1 N NaOH prior to quantitation of PGE2 content by radioimmunoassay (Dupont-NEN or Amersham assay kits). Cyclooxygenase activity is defined as the difference between PGE2 levels in samples incubated in the presence of arachidonic acid and ethanol vehicle.
In the assay, inhibition is determined by measuring the amount of prostaglandin E2 (PGE2) synthesized in the presence of arachidonic acid, cyclooxygenase-1 or cyclooxygenase-2 and a putative inhibitor.

Test [3] concerns the target T2, COX-2 (Homo sapiens, UniProt P35354).
T2 sequence (P35354 18-604): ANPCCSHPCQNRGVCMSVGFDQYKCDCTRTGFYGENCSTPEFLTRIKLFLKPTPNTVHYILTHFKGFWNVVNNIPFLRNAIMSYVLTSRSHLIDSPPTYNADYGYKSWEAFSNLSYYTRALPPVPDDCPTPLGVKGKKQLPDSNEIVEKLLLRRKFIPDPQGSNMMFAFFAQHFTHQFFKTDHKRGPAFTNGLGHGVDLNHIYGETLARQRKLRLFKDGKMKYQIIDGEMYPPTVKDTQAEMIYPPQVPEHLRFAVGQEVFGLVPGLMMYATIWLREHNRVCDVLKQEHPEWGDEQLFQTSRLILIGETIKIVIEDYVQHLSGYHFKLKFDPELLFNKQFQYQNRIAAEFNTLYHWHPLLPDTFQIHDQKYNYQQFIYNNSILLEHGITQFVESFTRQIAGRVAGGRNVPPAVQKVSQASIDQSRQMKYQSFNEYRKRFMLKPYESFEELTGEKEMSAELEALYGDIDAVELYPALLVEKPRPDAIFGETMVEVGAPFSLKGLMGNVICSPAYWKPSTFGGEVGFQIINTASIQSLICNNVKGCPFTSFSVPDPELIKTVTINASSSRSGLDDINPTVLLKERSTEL
The experiment in a line: cell-based. The settings on record: CHO[hCOX-2] cells, 10 μM AA, 15 min preincubation; read-out: COX-2 (IC50 mM) CHO.
Method: For cyclooxygenase assays, CHO[hCOX-1] cells from suspension cultures and CHO[hCOX-2] cells prepared by trypsinization of adherent cultures are harvested by centrifugation (300×g, 10 min) and washed once in HBSS containing 15 mM HEPES, pH 7.4, and resuspended in HBSS, 15 mM HEPES, pH 7.4, at a cell concentration of 1.5×10^6 cells/ml. Drugs to be tested are dissolved in DMSO to 66.7-fold the highest test drug concentration. […] Cells (0.3×10^6 cells in 200 μl) are preincubated with 3 μl of the test drug or DMSO vehicle for 15 min at 37° C. Working solutions of peroxide-free AA (5.5 μM and 110 μM AA for the CHO [hCOX-1] and CHO [COX-2] assays, respectively) are prepared by a 10-fold dilution of a concentrated AA solution in ethanol into HBSS containing 15 mM HEPES, pH 7.4. Cells are then challenged in the presence or absence of drug with the AA/HBSS solution to yield a final concentration of 0.5 μM AA in the CHO[hCOX-1] assay and a final concentration of 10 μM AA in the CHO[hCOX-2] assay. The reaction is terminated by the addition of 10 μl 1 N HCl followed by neutralization with 20 μl of 0.5 N NaOH. The samples are centrifuged at 300 ×g at 4° C. for 10 min, and an aliquot of the clarified supernatant is appropriately diluted for the determination of PGE2 levels using an enzyme-linked immunoassay for PGE2 (Correlate PGE2 enzyme immunoassay kit, Assay Designs, Inc.). Cyclooxygenase activity in the absence of test compounds is determined as the difference in PGE2 levels of cells challenged with arachidonic acid versus the PGE2 levels in cells mock-challenged with ethanol vehicle. Inhibition of PGE2 synthesis by test compounds is calculated as a percentage of the activity in the presence of drug versus the activity in the positive control samples.

Test [4] deals with T2, COX-2. The experiment in a line: cell-based. The settings on record: human whole blood, LPS-induced PGE2, 24 h; read-out: COX-2 (IC50 mM) HWB.
Excerpt: as §1
Fresh blood is collected in heparinized tubes by venipuncture from both male and female volunteers. The subjects have no apparent inflammatory conditions and have not taken any NSAIDs for at least 7 days prior to blood collection. Plasma is immediately obtained from a 2mL blood aliquot to use as blank (basal levels of PGE2). The remaining blood is incubated with LPS (100 μg/ml final concentration, Sigma Chem, #L-2630 from E. coli; diluted in 0.1% BSA (Phosphate buffered saline) for 5 minutes at room temperature. Five hundred […] aliquots of blood are incubated with either 2 μL of vehicle (DMSO) or 2 μL of a test compound at final concentrations varying from 10 nM to 30 μM for 24 hours at 37° C. At the end of the incubation, the blood is centrifuged at 12,000×g for 5 minutes to obtain plasma. A 100 μL aliquot of plasma is mixed with 400 μL of methanol for protein precipitation. The supernatant is obtained and is assayed for PGE2 using a radioimmunoassay kit (Amersham, RPA#530) after conversion of PGE2 to its methyl oximate derivative according to the manufacturer's procedure. […]

Setting [5] is: human whole blood, clotting-induced TxB2, 1 h, read-out: COX-1 (IC50 mM) HWB.
Setting [6] is: U-937 cell microsomes, read-out: COX-1 (IC50 mM) U-937.

T1 sequence (P23219 24-599): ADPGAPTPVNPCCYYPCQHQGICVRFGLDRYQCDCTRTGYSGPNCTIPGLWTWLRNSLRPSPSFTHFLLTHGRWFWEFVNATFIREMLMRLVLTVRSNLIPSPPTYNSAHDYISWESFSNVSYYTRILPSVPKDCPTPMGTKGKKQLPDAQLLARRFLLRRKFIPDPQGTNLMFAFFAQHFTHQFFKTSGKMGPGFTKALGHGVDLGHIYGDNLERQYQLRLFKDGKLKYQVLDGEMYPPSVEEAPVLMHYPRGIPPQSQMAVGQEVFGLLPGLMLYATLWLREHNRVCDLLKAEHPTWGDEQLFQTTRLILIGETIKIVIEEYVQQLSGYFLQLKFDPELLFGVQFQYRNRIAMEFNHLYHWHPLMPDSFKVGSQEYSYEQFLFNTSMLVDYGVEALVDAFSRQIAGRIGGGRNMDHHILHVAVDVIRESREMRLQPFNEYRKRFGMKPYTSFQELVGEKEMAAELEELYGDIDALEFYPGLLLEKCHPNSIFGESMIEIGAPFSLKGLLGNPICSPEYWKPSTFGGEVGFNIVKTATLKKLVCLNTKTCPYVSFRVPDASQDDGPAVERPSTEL

One may read the IC50 as the concentration that inhibits the measured activity by half. For `C[C@]1(O)CCC[C@H]1Oc1ncc(C(F)(F)F)cc1-c1ccc(S(C)(=O)=O)cc1` (single isomer, unassigned) [Example 32, (-)-2-(cis-2-Hydroxy-2-methylcyclopentyloxy)-3-(4-methylsulfonyl)phenyl-5-trifluoromethylpyridine], the IC50 in test [1] (setting [5]) is greater than 0.1 mM; in test [2] (setting [6]) it was greater than 0.01 mM.

As for `CS(=O)(=O)c1ccc(-c2cc(C(F)(F)F)cnc2OCC2(O)CCCC2)cc1` [Example 13, 2-(1-Hydroxycyclopentyl)methoxy-3-(4-methylsulfonyl)phenyl-5-trifluoromethylpyridine], the IC50 in test [1] (setting [5]) turned out to be 0.096 mM; in test [2] (setting [6]), 0.01 mM.

Turning to `C[C@@H](Oc1ncc(C(F)(F)F)cc1-c1ccc(S(C)(=O)=O)cc1)C(C)(C)O` [Example 17, 2-((2R)-3-Hydroxy-3-methyl-2-butyloxy)-3-(4-methylsulfonyl)phenyl-5-trifluoromethylpyridine], the IC50 in test [3] is 0.38 µM; in test [1] (setting [5]), greater than 0.1 mM; in test [4], less than 0.0004 mM; in test [2] (setting [6]), greater than 0.01 mM.

As for `CCC(O)(CC)[C@@H](C)Oc1ncc(C(F)(F)F)cc1-c1ccc(S(C)(=O)=O)cc1` [Example 21, 2-((2R)-3-Ethyl-3-hydroxy-2-pentyloxy)-3-(4-methylsulfonyl)phenyl-5-trifluoromethylpyridine], the IC50 was 0.2 µM in test [3], greater than 0.1 mM in test [1] (setting [5]), 0.0047 mM in test [4] and greater than 0.01 mM in test [2] (setting [6]).

As for `C[C@@H](O)[C@@H](C)Oc1ncc(C(F)(F)F)cc1-c1ccc(S(C)(=O)=O)cc1` [Example 23, 2-((2R,3R)-3-Hydroxy-2-butyloxy)-3-(4-methylsulfonyl)phenyl-5-trifluoromethylpyridine], the concentration for half-maximal inhibition (IC50) in test [3] is 0.05 µM; in test [1] it was greater than 0.1 mM; in test [4] it was 0.0005 mM; in test [2] (COX-1 (IC50 mM) U-937, U-937 cell microsomes) it was greater than 0.01 mM.

Consider `C[C@H](CO)Oc1ncc(C(F)(F)F)cc1-c1ccc(S(C)(=O)=O)cc1` [Example 28, 2-((2R)-1-Hydroxy-2-propyloxy)-3-(4-methylsulfonyl)phenyl-5-trifluoromethylpyridine], for which the IC50 in test [3] was 0.04 µM; in test [1] (setting [5]), greater than 0.1 mM; in test [4], 0.0112 mM; in test [2] (setting [6]), greater than 0.01 mM.

As to `CC(C)(O)CSc1ncc(C(F)(F)F)cc1-c1ccc(S(C)(=O)=O)cc1` [Example 43, 2-(2-Hydroxy-2-methyl-1-thiopropyloxy)-3-(4-methylsulfonyl)phenyl-5-trifluoromethylpyridine], the IC50 is 0.039 mM in test [1] (setting [5]) and 0.003 to 0.01 mM in test [2] (setting [6]).

As for `CC(C)(O)/C=C\c1ncc(Cl)cc1-c1ccc(S(C)(=O)=O)cc1` [Example 51, 5-Chloro-2-((Z)-3-Hydroxy-3-methyl-1-butenyl)-3-(4-methylsulfonyl)phenylpyridine], the IC50 in test [3] is 0.01 µM; in test [1] (setting [5]), 0.01 mM; in test [4], 0.0008 mM; in test [2] (setting [6]), 0.001 to 0.003 mM.
